Measurements reported in ChEMBL document CHEMBL4673185 (RSC Med Chem, 2020).
pEC50: −log10 of the molar value. Positions of bridges follow the written chain, without caps; N, C: chain ends. Non-standard residues stand in square brackets, D forms with d. Residues, ends and D or L forms follow the SMILES beside them. Gla = N[C@@H](CC(C(=O)O)C(=O)O)C(=O)O

Experiments:
[1] = biological target: Insulin receptor (Homo sapiens, UniProt P06213); experiment: Activation of human IR-B expressed in mouse NIH3T3 cells assessed as increase in Akt phosphorylation at Ser473 residue incubated for 30 mins by HTRF method; format: cell-based
[2] = Half life in iv dosed Wistar rat serum measured after 2 to 20 mins by HPLC analysis; format: ADME, organism-based; conditions: time 2-20 min
[3] = biological target: Mas-related G-protein coupled receptor member X1 (Homo sapiens, UniProt Q96LB2); experiment: Activation of human MrgprX1 expressed in BAM 8-22 activated-rat KNRK cells by fura2-AM dye based calcium imaging assay; format: cell-based
[4] = Agonist activity at Zebra fish V2R expressed in African green monkey COS-1 cells assessed as increase in intracellular calcium response by FLIPR assay; format: cell-based; conditions: Danio rerio
[5] = biological target: T1, Vasopressin V1b receptor (Homo sapiens, UniProt P47901); experiment: Agonist activity at human V1bR expressed in African green monkey COS-1 cells assessed as increase in intracellular calcium response by FLIPR assay; format: functional, cell-based
T1 sequence (P47901 whole entry): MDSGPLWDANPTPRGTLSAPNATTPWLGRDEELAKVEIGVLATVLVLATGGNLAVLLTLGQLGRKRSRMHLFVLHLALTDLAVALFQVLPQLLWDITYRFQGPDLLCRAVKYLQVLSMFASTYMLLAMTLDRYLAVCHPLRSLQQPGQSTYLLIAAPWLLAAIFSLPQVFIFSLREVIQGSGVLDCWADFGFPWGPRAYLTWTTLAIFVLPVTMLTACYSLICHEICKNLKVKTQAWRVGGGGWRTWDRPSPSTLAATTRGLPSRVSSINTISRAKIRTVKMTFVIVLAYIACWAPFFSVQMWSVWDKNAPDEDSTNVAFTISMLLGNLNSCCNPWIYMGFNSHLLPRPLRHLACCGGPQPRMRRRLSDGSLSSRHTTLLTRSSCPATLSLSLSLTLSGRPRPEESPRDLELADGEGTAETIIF

[6] = Agonist activity at Zebra fish V1a1R expressed in African green monkey COS-1 cells assessed as increase in intracellular calcium response by FLIPR assay; format: cell-based; conditions: Danio rerio
[7] = biological target: Neurotensin receptor type 1 (Rattus norvegicus, UniProt P20789); experiment: Agonist activity at rat NTR1 expressed in CHO cells assessed as effect on [3H] phosphoinositide accumulation using neurotensin (1 to 13 residues) as substrate by radioactive assay; format: cell-based
Neurotensin receptor type 1, sequence (P20789 whole entry, the tested form may be a part): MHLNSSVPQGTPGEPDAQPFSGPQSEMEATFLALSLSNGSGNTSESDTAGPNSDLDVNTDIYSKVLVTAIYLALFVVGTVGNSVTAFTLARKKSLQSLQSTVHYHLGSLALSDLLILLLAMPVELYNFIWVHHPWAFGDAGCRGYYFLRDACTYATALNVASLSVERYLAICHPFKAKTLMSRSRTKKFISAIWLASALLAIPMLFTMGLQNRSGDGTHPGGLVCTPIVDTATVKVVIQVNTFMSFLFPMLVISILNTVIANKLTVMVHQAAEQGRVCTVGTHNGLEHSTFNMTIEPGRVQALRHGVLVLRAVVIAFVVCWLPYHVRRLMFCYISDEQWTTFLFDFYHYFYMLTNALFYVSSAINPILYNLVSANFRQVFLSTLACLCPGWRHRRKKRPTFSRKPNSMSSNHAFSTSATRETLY

Mas-related G-protein coupled receptor member X1, sequence (Q96LB2 whole entry): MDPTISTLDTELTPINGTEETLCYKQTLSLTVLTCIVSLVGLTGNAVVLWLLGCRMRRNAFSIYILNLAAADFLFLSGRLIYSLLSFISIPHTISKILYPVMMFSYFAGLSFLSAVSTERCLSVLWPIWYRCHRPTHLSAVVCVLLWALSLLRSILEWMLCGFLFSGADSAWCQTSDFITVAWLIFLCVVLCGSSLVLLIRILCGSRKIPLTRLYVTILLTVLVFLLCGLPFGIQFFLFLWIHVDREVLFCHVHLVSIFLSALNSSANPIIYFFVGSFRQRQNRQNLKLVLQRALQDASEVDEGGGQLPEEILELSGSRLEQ
Insulin receptor, sequence (P06213 28-758 limits assumed): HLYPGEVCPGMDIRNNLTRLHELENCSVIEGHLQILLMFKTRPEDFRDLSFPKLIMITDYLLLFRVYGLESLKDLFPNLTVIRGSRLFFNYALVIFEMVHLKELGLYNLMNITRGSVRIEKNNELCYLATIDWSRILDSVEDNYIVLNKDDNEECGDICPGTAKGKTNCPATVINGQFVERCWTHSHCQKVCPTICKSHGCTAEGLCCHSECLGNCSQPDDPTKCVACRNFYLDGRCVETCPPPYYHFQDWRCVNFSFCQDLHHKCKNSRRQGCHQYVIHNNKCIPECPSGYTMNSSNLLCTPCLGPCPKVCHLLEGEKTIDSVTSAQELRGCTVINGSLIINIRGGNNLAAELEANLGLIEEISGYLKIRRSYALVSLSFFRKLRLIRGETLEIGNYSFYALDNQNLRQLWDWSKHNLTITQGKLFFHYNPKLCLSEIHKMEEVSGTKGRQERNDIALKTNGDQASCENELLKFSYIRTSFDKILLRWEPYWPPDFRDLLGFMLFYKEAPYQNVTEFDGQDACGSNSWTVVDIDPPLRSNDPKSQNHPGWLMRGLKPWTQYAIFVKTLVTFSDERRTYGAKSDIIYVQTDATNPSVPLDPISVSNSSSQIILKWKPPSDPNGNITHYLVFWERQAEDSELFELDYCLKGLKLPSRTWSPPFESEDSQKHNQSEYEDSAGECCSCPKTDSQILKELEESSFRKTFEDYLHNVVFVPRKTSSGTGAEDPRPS
Insulin receptor, sequence (P06213 763-1382 limits assumed): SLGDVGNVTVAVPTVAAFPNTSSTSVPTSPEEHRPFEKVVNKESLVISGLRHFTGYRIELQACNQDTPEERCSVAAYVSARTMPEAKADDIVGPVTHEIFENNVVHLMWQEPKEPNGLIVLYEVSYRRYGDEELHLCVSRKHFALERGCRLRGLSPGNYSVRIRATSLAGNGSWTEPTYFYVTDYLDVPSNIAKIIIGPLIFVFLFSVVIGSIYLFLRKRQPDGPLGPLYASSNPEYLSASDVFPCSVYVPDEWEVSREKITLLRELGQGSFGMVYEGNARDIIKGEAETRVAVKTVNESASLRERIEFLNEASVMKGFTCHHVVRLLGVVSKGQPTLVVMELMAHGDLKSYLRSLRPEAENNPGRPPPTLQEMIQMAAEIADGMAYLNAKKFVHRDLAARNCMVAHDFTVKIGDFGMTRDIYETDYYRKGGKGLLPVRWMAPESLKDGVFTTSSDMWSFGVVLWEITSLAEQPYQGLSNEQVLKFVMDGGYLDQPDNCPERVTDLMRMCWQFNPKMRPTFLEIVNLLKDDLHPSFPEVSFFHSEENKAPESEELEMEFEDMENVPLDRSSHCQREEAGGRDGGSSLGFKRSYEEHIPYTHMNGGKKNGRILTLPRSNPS

In the case of “H-GIV[Gla]DCCYNDCTDEKLKEYCHTLQSDSGTTLVRRRLCGS[Gla]LVTYLGELCLGN-OH (disulfide 6-11, 7-37, 20-49)”, the pEC50 [1] was 7.92.
`CC[C@H](C)[C@H](NC(=O)[C@H](Cc1ccccc1)NC(=O)[C@H](CCC(=O)O)NC(=O)[C@H](CCCCN)NC(=O)[C@H](C)NC(=O)[C@H](C)NC(=O)[C@H](CCC(N)=O)NC(=O)CNC(=O)[C@H](CCC(=O)O)NC(=O)[C@H](CC(C)C)NC(=O)[C@H](Cc1ccc(O)cc1)NC(=O)[C@H](CO)NC(=O)[C@H](CO)NC(=O)[C@@H](NC(=O)[C@H](CC(=O)O)NC(=O)[C@H](CO)NC(=O)[C@@H](NC(=O)[C@H](Cc1ccccc1)NC(=O)[C@@H](NC(=O)CNC(=O)[C@H](CCC(=O)O)NC(=O)[C@H](C)NC(=O)[C@@H](N)Cc1cnc[nH]1)[C@@H](C)O)[C@@H](C)O)C(C)C)C(=O)N[C@@H](C)C(=O)N[C@@H](Cc1c[nH]c2ccccc12)C(=O)N[C@@H](CC(C)C)C(=O)N[C@H](C(=O)N[C@@H](CCCCN)C(=O)NCC(=O)N[C@@H](CCCNC(=N)N)C(=O)O)C(C)C` gave a half-life [2] of 2 min.
H-HSGILLAWSGPRNRFVRI-OH showed a pEC50 [3] of 6.30.
With `CC[C@H](C)[C@@H]1NC(=O)[C@H](CC(=O)O)NC(=O)[C@H](CO)NC(=O)CNC(=O)[C@@H]2CSSC[C@@H]3NC(=O)[C@@H](NC(=O)[C@H](Cc4cnc[nH]4)NC(=O)[C@H](CC(C(=O)O)C(=O)O)NC(=O)[C@@H](NC(=O)[C@@H](NC(=O)CN)C(C)C)C(C)C)CSSC[C@H](NC(=O)[C@@H]4CCCN4C(=O)[C@H](CCCNC(=N)N)NC(=O)[C@H](Cc4cnc[nH]4)NC3=O)C(=O)N[C@@H](CO)C(=O)N[C@@H](CC(N)=O)C(=O)N[C@@H](C)C(=O)N[C@@H](CCC(=O)O)C(=O)N[C@@H](Cc3ccccc3)C(=O)N[C@@H](CCCCN)C(=O)N[C@@H](CCCCN)C(=O)N[C@@H](Cc3ccccc3)C(=O)N[C@@H](CSSC[C@H](C(=O)N[C@@H](Cc3ccccc3)C(=O)O)NC(=O)[C@H](CC(C)C)NC(=O)[C@H](CC(=O)O)NC(=O)[C@H](CCSC)NC(=O)[C@H](Cc3ccc(O)cc3)NC(=O)[C@H](CO)NC(=O)[C@H](CC(N)=O)NC(=O)[C@@H]3CCCN3C1=O)C(=O)N[C@@H](CC(N)=O)C(=O)N[C@@H](CO)C(=O)N[C@@H](CC(=O)O)C(=O)N[C@@H]([C@@H](C)O)C(=O)N1CC(O)C[C@H]1C(=O)N[C@@H](CCCCN)C(=O)N[C@@H](Cc1ccc(O)cc1)C(=O)N[C@@H](CCCNC(=N)N)C(=O)N2` (some centres undefined) the pEC50 [1] was 7.92.
For `CC[C@H](C)[C@@H]1NC(=O)[C@H](Cc2ccc(O)cc2)NC(=O)[C@H](CO)NC(=O)[C@H](CC(N)=O)NC(=O)[C@@H]2CCCN2C(=O)[C@H]([C@@H](C)CC)NC(=O)[C@H](CC(C(=O)O)C(=O)O)NC(=O)[C@H](CO)NC(=O)CNC(=O)[C@@H]2CSSC[C@@H]3NC(=O)[C@@H](NC(=O)[C@H](Cc4cnc[nH]4)NC(=O)[C@H](CC(C(=O)O)C(=O)O)NC(=O)[C@@H](NC(=O)[C@@H](NC(=O)CN)C(C)C)C(C)C)CSSC[C@H](NC(=O)[C@@H]4CCCN4C(=O)[C@H](CCCNC(=N)N)NC(=O)[C@H](Cc4cnc[nH]4)NC3=O)C(=O)N[C@@H](CO)C(=O)N[C@@H](CC(N)=O)C(=O)N[C@@H](C)C(=O)N[C@@H](CCC(=O)O)C(=O)N[C@@H](Cc3ccccc3)C(=O)N[C@@H](CCCCN)C(=O)N[C@@H](CCCCN)C(=O)N[C@@H](Cc3ccccc3)C(=O)N[C@@H](CSSC[C@H](C(=O)N[C@@H](Cc3ccccc3)C(=O)O)NC(=O)[C@H](CC(C)C)NC(=O)[C@H](CC(=O)O)NC1=O)C(=O)N[C@@H](CC(N)=O)C(=O)N[C@@H](CO)C(=O)N[C@@H](CC(=O)O)C(=O)N[C@@H]([C@@H](C)O)C(=O)N1CC(O)C[C@H]1C(=O)N[C@@H](CCCCN)C(=O)N[C@@H](Cc1ccc(O)cc1)C(=O)N[C@@H](CCCNC(=N)N)C(=O)N2` (some centres undefined), the pEC50 [1] was 7.92.
`CC(C)C[C@H](NC(=O)[C@H](Cc1ccccc1)NC(=O)[C@@H](N)CS)C(=O)NCC(=O)N[C@@H](CC(N)=O)C(=O)N[C@@H](CS)C(=O)N1CCC[C@H]1C(=O)N[C@@H](CC(=O)O)C(=O)N[C@@H](CO)C(N)=O` (H-CFLGNCPDS-NH2) gave a pEC50 [4] of 6.00.
Molecule `CC(C)C[C@H](NC(=O)[C@H](Cc1ccccc1)NC(=O)[C@@H](N)CS)C(=O)NCC(=O)N[C@@H](CC(N)=O)C(=O)N[C@@H](CS)C(=O)N1CCC[C@H]1C(=O)N[C@@H](CC(=O)O)C(=O)N[C@@H](CO)C(=O)O` (H-CFLGNCPDS-OH) has a pEC50 [4] of 6.00.
For `CC[C@H](C)[C@H](NC(=O)[C@H](CC(C)C)NC(=O)[C@@H](Cc1ccc(O)cc1)NC(=O)[C@H](CCC(N)=O)NC(=O)[C@H](CC(N)=O)NC(=O)[C@H](Cc1ccc(O)cc1)NC(=O)[C@H](CCC(N)=O)NC(=O)[C@H](CC(C)C)NC(=O)[C@@H](Cc1ccc(O)cc1)NC(=O)[C@@H](Cc1ccc(O)cc1)NC(=O)[C@H](CCC(=O)O)NC(=O)CN)C(=O)N[C@@H](CCCNC(=N)N)C(=O)N[C@H](Cc1ccc(O)cc1)C(=O)N[C@@H](CCCCN)C(=O)N[C@@H](CO)C(=O)N[C@@H](CC(N)=O)C(N)=O`, the pEC50 [1] was 7.92.
H-AWSGPRNRFVRF-OH gave a pEC50 [3] of 5.74.
Work on “H-GVV[Gla]HCCKRACSNA[Gla]FMQFCNSDTPWNRCGSQITDSYR[Gla]LCPH-OH (disulfide 6-11, 7-29, 20-41)” yielded a pEC50 [1] of 7.92.
For `NC(=O)C[C@H](NC(=O)CNC(=O)[C@@H]1CCCN1C(=O)[C@H](Cc1ccccc1)NC(=O)[C@@H](N)CS)C(=O)N[C@@H](CS)C(=O)N1CCC[C@H]1C(=O)N[C@@H](CC(=O)O)C(=O)N[C@@H](CO)C(N)=O` (H-CFPGNCPDS-NH2), the pEC50 [5] was 6.00 and the pEC50 [6] was 6.00.
Work on `CC[C@H](C)[C@H](NC(=O)[C@H](CC(C)C)NC(=O)[C@@H](Cc1ccc(O)cc1)NC(=O)[C@H](CCC(N)=O)NC(=O)[C@H](CC(N)=O)NC(=O)[C@H](Cc1ccc(O)cc1)NC(=O)[C@H](CCC(N)=O)NC(=O)[C@H](CC(C)C)NC(=O)[C@@H](Cc1ccc(O)cc1)NC(=O)[C@@H](Cc1ccc(O)cc1)NC(=O)[C@H](CCC(=O)O)NC(=O)CN)C(=O)N[C@@H](CCCNC(=N)N)C(=O)N[C@H](Cc1ccc(O)cc1)C(=O)N[C@@H](CCCCN)C(=O)N[C@@H](CO)C(=O)N[C@@H](CC(N)=O)C(=O)O` yielded a pEC50 [7] of 7.70.
Work on H-HSGFLLAWSGPRNRFVRF-OH yielded a pEC50 [3] of 5.74.
